# From article PMC7180948, “New Insights into 4-Anilinoquinazolines as Inhibitors of Cardiac Troponin I–Interacting Kinase (TNNi3K)” (Molecules, 2020)
# Tests used:
# Assay in all cases: biochemical
# Design in all cases: KINOMEscan competition binding panel (Eurofins DiscoverX), single concentration, % inhibition
# Conditions in all cases: read-out: 7 at 1 µM % inhibition
# AKT2 = AKT2 (Homo sapiens, UniProt P31751)
# Method in brief: (§1)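 KINOMEscan binding panel of >400 kinases, run by Eurofins DiscoverX, with compounds tested at a single concentration of 1 µM.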
# ASK2 = target: T1, ASK2 (Homo sapiens, UniProt O95382)
# T1 construct: gene MAP3K6
# Method in brief: as §1
# CAMKK2 = CAMKK2 (Homo sapiens, UniProt Q96RR4)
# CAMKK2, sequence (Q96RR4 whole entry): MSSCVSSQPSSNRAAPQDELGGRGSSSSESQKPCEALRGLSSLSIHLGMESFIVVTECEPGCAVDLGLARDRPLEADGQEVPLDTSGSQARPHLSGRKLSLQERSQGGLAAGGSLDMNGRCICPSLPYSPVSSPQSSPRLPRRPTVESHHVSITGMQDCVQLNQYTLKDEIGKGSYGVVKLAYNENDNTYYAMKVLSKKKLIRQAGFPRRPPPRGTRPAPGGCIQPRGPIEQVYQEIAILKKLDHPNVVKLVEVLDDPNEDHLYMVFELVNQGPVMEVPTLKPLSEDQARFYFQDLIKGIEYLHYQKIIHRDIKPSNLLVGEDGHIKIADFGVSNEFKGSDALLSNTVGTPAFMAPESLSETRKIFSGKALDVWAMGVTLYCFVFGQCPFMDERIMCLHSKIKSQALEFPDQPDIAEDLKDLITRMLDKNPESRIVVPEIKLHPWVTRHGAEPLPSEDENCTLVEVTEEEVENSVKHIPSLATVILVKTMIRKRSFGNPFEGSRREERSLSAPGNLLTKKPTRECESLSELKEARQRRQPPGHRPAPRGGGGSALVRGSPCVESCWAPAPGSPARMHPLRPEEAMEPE
# Method in brief: as §1
# CHEK2 = CHEK2 (Homo sapiens, UniProt O96017)
# Method in brief: as §1
# EPHA5 = EPHA5 (Homo sapiens, UniProt P54756)
# Method in brief: as §1
# ERK2 = target: T2, ERK2 (Homo sapiens, UniProt P28482)
# T2 construct: gene MAPK1
# Method in brief: as §1
# FGFR2 = FGFR2 (Homo sapiens, UniProt P21802)
# FGFR2, sequence (P21802 whole entry): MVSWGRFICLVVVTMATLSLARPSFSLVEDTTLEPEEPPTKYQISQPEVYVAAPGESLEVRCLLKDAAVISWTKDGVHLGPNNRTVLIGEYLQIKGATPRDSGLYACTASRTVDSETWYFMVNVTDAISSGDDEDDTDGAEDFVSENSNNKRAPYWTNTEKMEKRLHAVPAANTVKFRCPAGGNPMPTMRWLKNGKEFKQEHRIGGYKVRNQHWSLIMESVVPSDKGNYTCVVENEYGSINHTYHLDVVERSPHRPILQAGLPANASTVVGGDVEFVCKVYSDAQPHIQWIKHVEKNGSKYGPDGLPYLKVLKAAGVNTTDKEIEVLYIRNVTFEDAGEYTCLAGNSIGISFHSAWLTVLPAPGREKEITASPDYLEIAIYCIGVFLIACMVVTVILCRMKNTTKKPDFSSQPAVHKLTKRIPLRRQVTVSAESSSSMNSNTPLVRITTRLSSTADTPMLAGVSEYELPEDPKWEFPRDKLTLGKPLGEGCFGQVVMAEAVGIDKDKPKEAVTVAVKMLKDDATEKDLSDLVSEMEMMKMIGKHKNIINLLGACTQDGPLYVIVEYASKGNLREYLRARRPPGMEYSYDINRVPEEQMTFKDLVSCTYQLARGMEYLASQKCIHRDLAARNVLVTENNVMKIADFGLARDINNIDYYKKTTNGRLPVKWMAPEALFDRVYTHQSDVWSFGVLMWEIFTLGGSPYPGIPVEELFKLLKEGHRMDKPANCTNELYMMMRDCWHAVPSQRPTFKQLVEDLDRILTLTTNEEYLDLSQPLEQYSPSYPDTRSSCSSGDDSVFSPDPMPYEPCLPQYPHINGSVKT
# Method in brief: as §1
# FGFR4 = FGFR4 (Homo sapiens, UniProt P22455)
# FGFR4, sequence (P22455 whole entry): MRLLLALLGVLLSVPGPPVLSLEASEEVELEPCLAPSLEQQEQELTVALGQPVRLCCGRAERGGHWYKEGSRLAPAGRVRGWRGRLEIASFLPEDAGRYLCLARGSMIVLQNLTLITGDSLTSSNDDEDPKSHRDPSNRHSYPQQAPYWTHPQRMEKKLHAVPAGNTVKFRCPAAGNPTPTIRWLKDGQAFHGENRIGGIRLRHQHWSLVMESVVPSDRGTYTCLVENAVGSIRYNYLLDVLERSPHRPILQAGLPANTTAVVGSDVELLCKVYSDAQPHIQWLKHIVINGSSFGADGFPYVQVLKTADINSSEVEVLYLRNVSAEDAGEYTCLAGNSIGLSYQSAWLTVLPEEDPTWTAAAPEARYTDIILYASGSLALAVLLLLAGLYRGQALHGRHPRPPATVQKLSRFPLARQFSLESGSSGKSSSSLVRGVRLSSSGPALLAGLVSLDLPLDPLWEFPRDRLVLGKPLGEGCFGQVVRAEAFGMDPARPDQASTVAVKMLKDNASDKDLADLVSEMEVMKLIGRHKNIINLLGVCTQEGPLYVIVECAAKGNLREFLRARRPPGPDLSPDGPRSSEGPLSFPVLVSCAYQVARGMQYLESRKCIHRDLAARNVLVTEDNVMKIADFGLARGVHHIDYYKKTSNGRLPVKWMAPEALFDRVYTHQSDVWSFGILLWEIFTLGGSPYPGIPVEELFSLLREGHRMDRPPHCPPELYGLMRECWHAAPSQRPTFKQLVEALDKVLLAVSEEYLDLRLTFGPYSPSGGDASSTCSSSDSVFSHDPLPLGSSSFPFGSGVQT
# Method in brief: as §1
# FLT4 = FLT4 (Homo sapiens, UniProt P35916)
# Method in brief: as §1
# HCK = HCK (Homo sapiens, UniProt P08631)
# Method in brief: as §1
# JNK2 = target: T3, JNK2 (Homo sapiens, UniProt P45984)
# T3 construct: gene MAPK9
# Method in brief: as §1
# KIT(V559D,T670I) = KIT(V559D,T670I) (Homo sapiens, UniProt P10721, T670I/V559D)
# Method in brief: as §1
# LOK = target: T4, LOK (Homo sapiens, UniProt O94804)
# T4 construct: gene STK10
# Method in brief: as §1
# MET(M1250T) = MET(M1250T) (Homo sapiens, UniProt P08581, M1250T)
# Method in brief: as §1
# MLK3 = target: T5, MLK3 (Homo sapiens, UniProt Q16584)
# T5 construct: gene MAP3K11
# Method in brief: as §1
# MRCKA = target: T6, MRCKA (Homo sapiens, UniProt Q5VT25)
# T6 construct: gene CDC42BPA
# Method in brief: as §1
# NEK6 = NEK6 (Homo sapiens, UniProt Q9HC98)
# Method in brief: as §1
# PIK3C2G = PIK3C2G (Homo sapiens, UniProt O75747)
# Method in brief: as §1
# PIK3CA(E545K) = PIK3CA(E545K) (Homo sapiens, UniProt P42336, E545K)
# PIK3CA(E545K), sequence (P42336 whole entry E545K): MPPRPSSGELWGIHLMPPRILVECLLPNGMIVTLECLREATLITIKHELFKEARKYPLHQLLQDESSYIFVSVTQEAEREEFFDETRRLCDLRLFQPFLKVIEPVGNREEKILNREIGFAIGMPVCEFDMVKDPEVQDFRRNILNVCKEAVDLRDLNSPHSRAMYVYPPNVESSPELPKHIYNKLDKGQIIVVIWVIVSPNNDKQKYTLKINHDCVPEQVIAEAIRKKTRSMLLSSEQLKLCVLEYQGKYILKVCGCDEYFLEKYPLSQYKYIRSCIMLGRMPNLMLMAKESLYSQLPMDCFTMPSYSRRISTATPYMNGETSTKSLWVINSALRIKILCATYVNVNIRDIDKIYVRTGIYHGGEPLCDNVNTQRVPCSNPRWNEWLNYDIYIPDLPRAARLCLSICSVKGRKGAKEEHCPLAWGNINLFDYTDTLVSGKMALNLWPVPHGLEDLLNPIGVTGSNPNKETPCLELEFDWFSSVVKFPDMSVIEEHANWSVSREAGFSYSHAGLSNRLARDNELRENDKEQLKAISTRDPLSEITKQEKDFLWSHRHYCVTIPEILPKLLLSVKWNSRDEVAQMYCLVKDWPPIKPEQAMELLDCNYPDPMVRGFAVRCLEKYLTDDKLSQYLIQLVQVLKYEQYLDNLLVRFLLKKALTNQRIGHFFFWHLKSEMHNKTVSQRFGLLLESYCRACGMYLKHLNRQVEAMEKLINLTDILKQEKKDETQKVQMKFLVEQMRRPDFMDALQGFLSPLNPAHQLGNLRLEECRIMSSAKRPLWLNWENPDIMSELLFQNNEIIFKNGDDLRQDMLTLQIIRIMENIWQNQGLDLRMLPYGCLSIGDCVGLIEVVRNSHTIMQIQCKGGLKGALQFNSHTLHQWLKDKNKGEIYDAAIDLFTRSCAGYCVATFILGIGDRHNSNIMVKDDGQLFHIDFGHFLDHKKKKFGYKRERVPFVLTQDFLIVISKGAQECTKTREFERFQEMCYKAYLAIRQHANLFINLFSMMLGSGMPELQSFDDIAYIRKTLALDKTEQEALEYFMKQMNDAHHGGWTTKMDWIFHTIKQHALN
# Method in brief: as §1
# PIM3 = PIM3 (Homo sapiens, UniProt Q86V86)
# Method in brief: as §1
# PRKX = PRKX (Homo sapiens, UniProt P51817)
# Method in brief: as §1
# TRKC = target: T7, TRKC (Homo sapiens, UniProt Q16288)
# T7 construct: gene NTRK3
# T7 sequence (Q16288 whole entry): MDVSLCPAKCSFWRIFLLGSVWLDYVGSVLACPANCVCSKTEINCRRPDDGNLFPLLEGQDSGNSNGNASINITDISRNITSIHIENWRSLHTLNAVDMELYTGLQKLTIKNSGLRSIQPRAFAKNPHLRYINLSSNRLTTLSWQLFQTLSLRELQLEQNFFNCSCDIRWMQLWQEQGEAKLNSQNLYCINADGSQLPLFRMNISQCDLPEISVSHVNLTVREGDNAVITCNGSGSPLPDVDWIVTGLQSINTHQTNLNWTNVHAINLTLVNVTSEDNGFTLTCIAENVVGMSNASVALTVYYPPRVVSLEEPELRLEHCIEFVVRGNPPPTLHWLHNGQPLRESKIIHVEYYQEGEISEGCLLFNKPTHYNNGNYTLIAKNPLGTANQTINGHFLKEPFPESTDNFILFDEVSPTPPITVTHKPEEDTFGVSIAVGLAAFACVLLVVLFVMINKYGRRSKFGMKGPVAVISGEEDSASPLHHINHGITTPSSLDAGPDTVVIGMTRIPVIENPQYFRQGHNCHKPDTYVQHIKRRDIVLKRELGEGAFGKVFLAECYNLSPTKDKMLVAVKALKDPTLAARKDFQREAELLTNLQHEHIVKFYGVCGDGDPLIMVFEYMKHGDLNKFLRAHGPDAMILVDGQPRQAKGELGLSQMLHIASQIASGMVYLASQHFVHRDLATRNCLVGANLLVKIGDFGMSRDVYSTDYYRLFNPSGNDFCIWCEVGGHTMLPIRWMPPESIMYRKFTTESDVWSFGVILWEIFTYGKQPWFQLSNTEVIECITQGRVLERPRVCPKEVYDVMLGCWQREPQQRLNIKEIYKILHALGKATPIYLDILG
# Method in brief: as §1
# YANK1 = target: T8, YANK1 (Homo sapiens, UniProt Q8WU08)
# T8 construct: gene STK32A
# T8 sequence (Q8WU08 whole entry): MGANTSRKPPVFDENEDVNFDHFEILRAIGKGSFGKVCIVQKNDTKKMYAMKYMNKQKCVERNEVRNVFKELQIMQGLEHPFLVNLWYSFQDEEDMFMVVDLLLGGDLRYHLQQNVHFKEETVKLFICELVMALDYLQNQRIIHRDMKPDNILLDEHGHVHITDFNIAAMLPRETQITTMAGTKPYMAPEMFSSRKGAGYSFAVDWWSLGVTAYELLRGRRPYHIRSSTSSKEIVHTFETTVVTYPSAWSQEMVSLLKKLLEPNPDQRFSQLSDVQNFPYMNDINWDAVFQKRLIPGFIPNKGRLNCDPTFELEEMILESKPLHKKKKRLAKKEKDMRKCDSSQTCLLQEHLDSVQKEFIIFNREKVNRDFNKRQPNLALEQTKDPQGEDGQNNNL
# Method in brief: as §1
# YES = target: T9, YES (Homo sapiens, UniProt P07947)
# T9 construct: gene YES1
# Method in brief: as §1
compound,measurement,setting,value
"CNS(=O)(=O)c1ccc(N(C)C)c(Nc2ncnc3cc(OC)c(OC)cc23)c1 [compound 7, 3-((6,7-dimethoxyquinazolin-4-yl)amino)-4-(dimethylamino)-N-methylbenzenesulfonamide]",inhibition at 1 µM,AKT2,0%
same,inhibition at 1 µM,ASK2,30%
same,inhibition at 1 µM,CAMKK2,0%
same,inhibition at 1 µM,CHEK2,11%
same,inhibition at 1 µM,EPHA5,0%
same,inhibition at 1 µM,ERK2,0%
same,inhibition at 1 µM,FGFR2,0%
same,inhibition at 1 µM,FGFR4,0%
same,inhibition at 1 µM,FLT4,0%
same,inhibition at 1 µM,HCK,11%
same,inhibition at 1 µM,JNK2,0%
same,inhibition at 1 µM,"KIT(V559D,T670I)",8%
same,inhibition at 1 µM,LOK,44%
same,inhibition at 1 µM,MET(M1250T),0%
same,inhibition at 1 µM,MLK3,0%
same,inhibition at 1 µM,MRCKA,0%
same,inhibition at 1 µM,NEK6,0%
same,inhibition at 1 µM,PIK3C2G,20%
same,inhibition at 1 µM,PIK3CA(E545K),5%
same,inhibition at 1 µM,PIM3,0%
same,inhibition at 1 µM,PRKX,0%
same,inhibition at 1 µM,TRKC,0%
same,inhibition at 1 µM,YANK1,17%
same,inhibition at 1 µM,YES,0%
